Laboratory results from ChEMBL document CHEMBL1201862, “PubChem BioAssay data set” (2004).
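Step 1: Grow cells in 96-well plates. Step 2: Expose to compound for 48 hours at 5 concentrations. Step 3: Interpolate endpoints linearly; if unreached, use highest concentration. At the GI50, growth is halved.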 The source made the active and inactive calls. No stated cut-off is given here; in the data, active = GI50 up to about 1.1 µM and inactive = higher.

What was measured:
Assay in all cases: NCI-60 cell line screen, 48 h
A498 = test system: A498
SNB-19 = test system: SNB-19
K562 = test system: K562
TK-10 = test system: TK-10
HCT-116 = test system: HCT-116
MDA-N = test system: MDA-N
786-0 = test system: 786-0
NCI-H23 = test system: NCI-H23
HOP-62 = test system: HOP-62
SK-MEL-28 = test system: SK-MEL-28
HT-29 = test system: HT-29
ACHN = test system: ACHN
IGROV-1 = test system: IGROV-1
SF-295 = test system: SF-295
HCC 2998 = test system: HCC 2998
HL-60 = test system: HL-60
CAKI-1 = test system: CAKI-1
M14 = test system: M14
OVCAR-3 = test system: OVCAR-3
XF498 = test system: XF498

| SMILES | GI50 (A498) | GI50 (SNB-19) | GI50 (K562) | GI50 (TK-10) | GI50 (HCT-116) | GI50 (MDA-N) | GI50 (786-0) | GI50 (NCI-H23) | GI50 (HOP-62) | GI50 (SK-MEL-28) | GI50 (HT-29) | GI50 (ACHN) | GI50 (IGROV-1) | GI50 (SF-295) | GI50 (HCC 2998) | GI50 (HL-60) | GI50 (CAKI-1) | GI50 (M14) | GI50 (OVCAR-3) | GI50 (XF498) |
| --- | --- | --- | --- | --- | --- | --- | --- | --- | --- | --- | --- | --- | --- | --- | --- | --- | --- | --- | --- | --- |
| CC1OC(OC2CC(O)(C(=O)CO)Cc3c(O)c4c(c(O)c32)C(=O)c2ccccc2C4=O)CC(N)C1O (stereo unspecified) | < 0.01 µM (active) | < 0.01 µM (active) | < 0.0118 µM (active) | 0.0559 µM (active) | < 0.01 µM (active) | 0.0652 µM (active) | < 0.01 µM (active) | 0.0162 µM (active) | < 0.01 µM (active) | 0.0573 µM (active) | < 0.0135 µM (active) | < 0.01 µM (active) | 0.12 µM (active) | < 0.01 µM (active) | < 0.01 µM (active) | < 0.01 µM (active) | < 0.01 µM (active) | < 0.015 µM (active) | 0.106 µM (active) |  |
| CCN(c1ccc(Br)cc1)c1c(Br)c(=O)nc2ccccn12 | > 100 µM (inactive) | > 100 µM (inactive) | 90.6 µM (inactive) | > 100 µM (inactive) | > 100 µM (inactive) |  | > 100 µM (inactive) | > 100 µM (inactive) | > 100 µM (inactive) | > 100 µM (inactive) | > 100 µM (inactive) | > 100 µM (inactive) | > 100 µM (inactive) |  |  |  | 93.1 µM (inactive) | > 100 µM (inactive) | > 100 µM (inactive) | > 100 µM (inactive) |
| OCC#CCNCl | > 100 µM (inactive) | > 100 µM (inactive) | > 100 µM (inactive) |  | > 100 µM (inactive) |  |  | > 100 µM (inactive) | > 100 µM (inactive) | > 100 µM (inactive) | > 28.1 µM (inactive) |  | > 100 µM (inactive) | > 100 µM (inactive) | > 100 µM (inactive) | > 100 µM (inactive) |  |  | > 100 µM (inactive) | > 53.1 µM (inactive) |
| C=C(CO)CC(O)c1ccccc1 (stereo unspecified) | > 100 µM (inactive) | > 100 µM (inactive) | > 100 µM (inactive) | > 100 µM (inactive) | > 100 µM (inactive) |  | > 100 µM (inactive) | > 100 µM (inactive) | > 100 µM (inactive) | > 100 µM (inactive) | > 100 µM (inactive) | > 100 µM (inactive) | > 100 µM (inactive) | > 100 µM (inactive) | > 100 µM (inactive) | > 100 µM (inactive) |  | > 100 µM (inactive) | > 100 µM (inactive) | > 100 µM (inactive) |
| O=C1C2CN(Cc3ccccc3)CC1CN(CC1CC1)C2 | > 100 µM (inactive) | > 100 µM (inactive) | > 100 µM (inactive) | > 100 µM (inactive) |  |  | > 100 µM (inactive) | > 100 µM (inactive) | > 100 µM (inactive) | > 100 µM (inactive) | > 100 µM (inactive) | > 100 µM (inactive) | > 100 µM (inactive) | > 100 µM (inactive) |  | > 100 µM (inactive) | > 100 µM (inactive) | > 100 µM (inactive) | > 100 µM (inactive) | > 100 µM (inactive) |
| CC(=O)OCCOCNC(=S)N/N=C/c1ccc([N+](=O)[O-])o1 | > 100 µM (inactive) | > 100 µM (inactive) | 37.1 µM (inactive) | > 100 µM (inactive) | 40 µM (inactive) |  | > 100 µM (inactive) | 26.7 µM (inactive) | > 100 µM (inactive) | 98.4 µM (inactive) | 30.3 µM (inactive) | 60.5 µM (inactive) | > 100 µM (inactive) | 40.6 µM (inactive) | 40.7 µM (inactive) | 11.6 µM (inactive) |  | 36.6 µM (inactive) | 33.6 µM (inactive) | > 100 µM (inactive) |
| COc1ccccc1NC(=O)C1=C(C)NC(C)=C(C(=O)Nc2ccccc2OC)C1c1ccc(C(C)C)cc1 | > 100 µM (inactive) | > 100 µM (inactive) |  | > 100 µM (inactive) | 13.8 µM (inactive) |  | > 100 µM (inactive) | > 100 µM (inactive) | > 100 µM (inactive) | 80.5 µM (inactive) | > 100 µM (inactive) | 65.9 µM (inactive) | > 100 µM (inactive) | > 100 µM (inactive) | 63.7 µM (inactive) |  | > 100 µM (inactive) | > 100 µM (inactive) | > 100 µM (inactive) | 18.6 µM (inactive) |
| CS(=O)(=O)N(N(CCCl)S(=O)(=O)c1ccccc1)S(C)(=O)=O |  | 67.9 µM (inactive) | > 100 µM (inactive) | > 100 µM (inactive) | > 100 µM (inactive) |  | 44.7 µM (inactive) | > 100 µM (inactive) | > 100 µM (inactive) | > 100 µM (inactive) | > 100 µM (inactive) | > 100 µM (inactive) |  | 88.9 µM (inactive) | > 100 µM (inactive) | > 100 µM (inactive) | > 100 µM (inactive) | > 100 µM (inactive) | > 100 µM (inactive) | > 100 µM (inactive) |
